From EP0876160B1, “LIGAND DIRECTED ENZYME PRODRUG THERAPY” (priority 1996, dated 1997)

How the values were obtained:
[1] = molecular target: bacterially produced CPG2 (Carboxypeptidase G2, wild type) (Pseudomonas sp., UniProt P06621); settings: substrate MTX; cited from earlier work
[2] = molecular target: VEGF/CPG2 fusion protein V115CPH6 (VEGF amino acids 1-115 fused to CPG2, polyhistidine tag), SEQ ID No. 10 (UniProt P06621+P15692, form not given/N222Q/N264Q/N272Q); settings: substrate MTX; V115CPH6 expressed in Sf9 cells, Ni++-NTA purified; 25°C, pH 7.3
From the text: (§1) Using this protocol, CPH6, V161CPH6, V115CPH6 and CPV109H6 were all purified from Sf9 cells by Ni++-NTA-Agarose affinity chromatography as described above. These samples were used to determine the affinity of the CPG2 moiety for the substrate MTX.

[3] = molecular target: VEGF/CPG2 fusion protein V161CPH6 (VEGF amino acids 1-161 fused to CPG2 amino acids 23-415, polyhistidine tag), SEQ ID No. 8 (UniProt P06621+P15692, form not given/N222Q/N264Q/N272Q); settings: substrate MTX; V161CPH6 expressed in Sf9 cells, Ni++-NTA purified; 25°C, pH 7.3
From the text: as §1

[4] = molecular target: Carboxypeptidase G2 (CPG2) construct CPH6 (c-erbB2 signal peptide, CPG2 amino acids 23-415, three Asn -> Gln glycosylation-site mutations N222, 264 and 272 > Q, (Pseudomonas sp., UniProt P06621, N222Q/N264Q/N272Q)); settings: substrate MTX; CPH6 expressed in Sf9 cells, Ni++-NTA purified; 25°C, pH 7.3
From the text: as §1

[5] = molecular target: CPG2/VEGF fusion protein CPV109H6 (CPG2 amino acids 23-415 fused via peptide spacer to VEGF amino acids 1-109, polyhistidine tag), SEQ ID No. 18 (UniProt P06621+P15692, form not given/N222Q/N264Q/N272Q); settings: substrate MTX; CPV109H6 expressed in Sf9 cells, Ni++-NTA purified; 25°C, pH 7.3
From the text: as §1

NIH3T3 cells = experiment: Non-specific cytotoxicity assay, cell growth by [3H]-thymidine incorporation; assay type: cell-based
Procedure: (§2) Confluent NIH3T3 cells were cultured in the absence (control, lane 1) or presence of 1mM CMDA prodrug (+CMDA, lane 2) for 18 hours. After incubation, the cells were diluted into fresh dishes (at a dilution of 100 fold) and allowed to grow for a further 6 days after which time the survival of the cells was determined by [^3H] thymidine incorporation. The results are expressed in terms of the % growth in terms of the control, which were considered to represent 100% cell growth.
Confluent NIH3T3 cells were cultured in the presence of 1mM CMDA prodrug in the absence of any additions (control, lane 3) or in the presence of the indicated fusion proteins (lanes 4-8). The additions were : lane 4, CPH6; lane 5, CPV161H6; lane 6, V161CPH6; lane 7, V115CPH6; lane 8, pEFCPV109H6. For each fusion, 0.3 to 0.9 nM of the fusions were added as determined by quantitative immunoprotein blotting. The cells were incubated and processed as in section A above for cell growth. […]
For the first assay, we wished to establish that CPH6 and the fusion proteins were able to direct prodrug dependent cyotoxicity of NIH3T3 cells, in a non-targeted manner. […] Samples of the purified proteins were added to NIH3T3 cells in the presence of the CMDA prodrug and the effects on cell viability were determined by measuring cell growth by [3H]-thymidine incorporation.

[6] = system: human umbilical vein endothelial (Hu-V-ec) cells; experiment: VEGF-directed cytotoxicity assay, cell growth by [3H]-thymidine incorporation; assay type: cell-based
Procedure: as §2, with “Confluent Hu-V-ec” for “Confluent NIH3T3”, “prodrug (+ CMDA,” for “prodrug (+CMDA,”, “of 3” for “of 100”
Confluent Hu-V-ec cells were cultured in the absence of any additions (control, lane 3) or in the presence of CPH6 (27 nM, lane 4), or of V115CPH6 (11nM, lane 5) for 30 min. The cells were then washed 6 times with fresh medium and incubated overnight in the presence of 1mM CMDA. The cells were re-plated at a dilution of 1/3 and allowed to grow for a further 4 days after which time the cell growth was estimated by [3H]thymidine incorporation. The results are expressed in terms of the % growth in terms of the control lane, which were considered to represent 100% cell growth.
The fusion proteins were assesed for their ability to direct the CMDA-dependent killing of cells which express specific receptors for VEGF on their surface. For this analysis, we employed human umbilical vein endothelial (Hu-V-ec) cells, which are dependent for growth on VEGF (Prog Growth Factor Res, 5, 89, 1994). […] The cells were incubated in the presence of CPH6, or V115CPH6 for 30 min to allow the fusion proteins to bind to the cell surface and then the cells were washed to remove unbound protein. CMDA was added and cell survival was determined by [3H]-thymidine incorporation.

For CN(Cc1cnc2nc(N)nc(N)c2n1)c1ccc(C(=O)N[C@@H](CCC(=O)O)C(=O)O)cc1 [MTX, Methotrexate], the Km [1] is listed as about 10 µM, the Km [2] is listed as 17 ± 1 µM and the Km [3] is listed as 18.2 ± 1.5 µM. For the same compound, the Km [4] was 19.6 ± 3.2 µM and the Km [5] was 9.1 ± 1.1 µM.
With CS(=O)(=O)OCCN(CCCl)c1ccc(C(=O)N[C@@H](CCC(=O)O)C(=O)O)cc1 [CMDA, N-4-[(2-chloroethyl)(2-mesyloxyethyl)amino]benzoyl-L-glutamic acid] the growth of cells (NIH3T3 cells; 1mM CMDA alone, 18 hours, then 6 days growth) was “does not significantly affect the growth”, the cell death (NIH3T3 cells; 1mM CMDA in the presence of sub-nanomolar (0.3 to 0.9 nM) CPH6 or each of the fusion proteins) was “complete cell death” and the “sensitivity (growth rate)” value ([6]; 1mM CMDA alone, 18 hours) was “not significantly sensitive”. The “growth rate of the cells” value ([6]; cells pre-incubated with CPH6 (27 nM) 30 min, washed, then 1mM CMDA overnight) was “no significant affect on the growth rate” and the “inhibition of cell growth” value ([6]; cells pre-incubated with V115CPH6 (11nM) 30 min, washed, then 1mM CMDA overnight) was over 90%.
